Measurements taken from patent US9464291B2, “Methods and compositions for the treatment of cancer” (University of South Alabama, priority 2012, dated 2016).
Several values for one entry are separate records, joined by “and”; a condition that tells them apart may be missing. Equal entries are not always repeated. Entries after “also recorded” stand apart in the source; their conditions may differ. Where two headings read alike, the source gives them in different places.

What was measured:
A2780-CP70 cells [1] = assay: Cisplatin cell growth / cell killing curves in A2780-CP70 cells; assay type: cell-based, human; details: cisplatin alone (lipofectamine only / control cells)
Procedure: A2780-CP70 cells were transfected with 0.07 μg/well anti-Gli1 shRNA construct or control. Transfected cells were treated with 0 μM, 10 μM, 30 μM, and 100 μM cisplatin at 24 hr post-transfection. Percent cell growth was determined relative to control cells. […] In another experiment, A2780-CP70 cells were transfected with 0.02 μg/well or 0.07 μg/well anti-Gli1 shRNA construct. Transfected cells were treated with 0 μM, 2 μM, 5 μM, 10 μM, 30 μM, and 50 μM cisplatin at 24 hr post-transfection. Percent cell growth was determined relative to control cells (FIG. 52B).
Control cells were treated with cisplatin only. Percent cell growth was determined relative to control cells.

c-jun = c-jun mRNA (semi-quantitative PCR) and protein (Western blot) in A2780-CP70 cells; assay type: cell-based, human; details: A2780-CP70
Procedure: Controls included α-tubulin and histone deacetylase 3. C-jun antibody recognizes non-phosphorylated c-jun protein.
c-jun and c-fos mRNA expression was examined in A2780-CP70 cells transfected with anti-GLI1 shRNA construct at 6 hr, 24 hr, 48 hr, and 72 hr post-transfection using semi-quantative PCR analysis (FIG. 41).
A2780-CP70 cells were transfected with an IC50 dose of anti-Gli1 shRNA (treated) construct or vector (control). Total intracellular c-jun mRNA and c-jun protein was measured at 6 hr, 24 hr, 48 hr, and 72 hr.
C-jun mRNA and protein levels were further examined in cisplatin-resistant A2780-CP70 cells treated with an IC50 dose of anti-Gli1 shRNA. FIG. 78 depicts mRNA levels (panel A) and protein levels (panel B) in cells at 6, 24, 48, and 72 hours post-treatment.

ERCC1, XPD, XRCC1 [2] = assay: ERCC1, XPD, XRCC1 mRNA / protein levels in A2780-CP70 cells; assay type: cell-based, human
[3] = tested on: c-jun (Ser 63, Ser 73, Thr 91, Thr 93); assay: c-jun protein phosphorylation, Western blot, A2780-CP70 cells; assay type: cell-based, human; details: 72 hr observation
Procedure: Protein levels for c-jun, c-fos, phosphorylated c-jun (Ser 63), phosphorylated c-jun (Ser 73), and phosphorylated c-jun (Thr 91, Thr 93) were tested in cytosolic, nuclear, and whole cell fractions at 0 hr, 6 hr, 24 hr, 48 hr, and 72 hr. Internal controls for cytosolic and nuclear fractions included α-tubulin and histone deacetylase 3.
Phosphorylation of c-jun in A2780-CP70 cells transfected with anti-GLI1 shRNA construct was assessed using Western blot analysis. Protein levels for c-jun, phosphorylated c-jun (Ser 63), phosphorylated c-jun (Ser 73), and phosphorylated c-jun (Thr 91, Thr 93) were examined at 0 hr, 6 hr, 24 hr, 48 hr, and 72 hr.
A2780-CP70 cells were treated with an IC50 dose of cisplatin and an IC50 dose of anti-Gli1 shRNA.

A2780-CP70 cells [4] = details: cisplatin-resistant A2780-CP70; cited from earlier work
ERCC1, XPD, XRCC1 [5] = details: cells treated with cisplatin only; cited from earlier work
[6] = tested on: c-jun (Ser 63, Ser 73, Thr 91, Thr 93); details: A2780-CP70; 3-5 hr after cisplatin treatment; cited from earlier work

## N.N.[Cl][Pt][Cl] [cisplatin]
A2780-CP70 cells [1]
  IC50: 30 µM and 28 µM
c-jun; IC50 dose of agent
  time of peak c-jun level: 6 h
c-jun; IC50 dose of cisplatin
  c-jun protein expression: increased substantial
ERCC1, XPD, XRCC1 [2]; A2780-CP70, cyclopamine pretreatment vs cisplatin alone
  time of highest ERCC1, XPD, XRCC1 mRNA levels after cisplatin exposure: 4 to 6 h
ERCC1, XPD, XRCC1 [2]; cells treated with cisplatin
  increase of ERCC1, XPD, and XRCC1 protein expression levels: 5 fold
ERCC1, XPD, XRCC1 [2]; cisplatin alone (unpublished data)
  expected rise of ERCC1 (as would XPD and XRCC1): more than 6 fold
[3]
  c-jun phosphorylation at Ser63: increases specifically at Ser63 and Ser73
  c-jun phosphorylation at Thr91/93: do not change significantly; also recorded: did not significantly change
A2780-CP70 cells [4]
  IC50: ~40 µM
ERCC1, XPD, XRCC1 [5]
  expected increase in ERCC1 mRNA levels: 6 fold
[6]
  peak c-jun phosphorylation over baseline: 15 fold
